Laboratory results as given in US20110236822A1, “METHOD OF TREATING SEASONED DEVELOPER SOLUTION” (priority 2010, published 2011).
Where two headings read alike, the source gives them in different places. Values belong to the compound of their own block, whether it stands above or below them.

Assays:
[1] = Treatment of IR dye with oxidative and reducing reagents to degrade the dye (TABLE I); format: physicochemical
aquatic life = settings: from MSDS sheets; cited from earlier work
humans = settings: from MSDS sheets; cited from earlier work
[2] = Treatment of seasoned developer solution with Chlorox bleach solution, residual dye by FTIR; format: physicochemical; settings: Kodak 955 Developer seasoned, 15 ml bleach diluted to 6%, 2000 rpm
Method: An imageable layer coating formulation was prepared with the components in TABLE II below in a solvent mixture of methyl ethyl ketone:water:isopropyl alcohol (70:20:10 weight ratio). The formulation was coated onto a sulfuric acid anodized aluminum substrate and dried in a conveyor oven at 100° C. for 1 minute to provide an imageable layer with a dry coating weight of 1.60 g/m^2. The resulting printing plate precursors were imaged at 110 mJ/cm^2 and 11 Watt using a Kodak 3244x platesetter. The imaged precursors (approx. 11 m^2) were manually developed in 1 liter of Kodak 955 Developer to produce seasoned developer solution (3).
Samples (each 50 ml) of seasoned developer solution (3) were diluted with 150 ml of water and treated with 15 ml of Chlorox® bleach solution diluted to 6% by drop wise addition while stirring at 2000 rpm. The stirring continued for another 15 minutes after the addition. The green color of the seasoned developer solution samples disappeared, forming pale yellow, slightly turbid solutions. […] The extract was concentrated about 50 times and analyzed by FTIR. […]
An imageable layer coating formulation was prepared using the components of TABLE II above except that the IR dye was S0507 from Few Chemicals GmbH. […] The extract was concentrated 50 times by evaporation under nitrogen flow and spotted onto a sodium chloride disk, dried, and analyzed by FTIR. […]

[3] = Treatment of seasoned developer solution with Chlorox bleach solution, residual dye by LC-MS; format: physicochemical; settings: Kodak 1080 Developer seasoned, diluted, 8 ml bleach diluted to 6%, 6000 rpm
Method: In this example, seasoned developer solutions containing IR dye 66e were treated with commercial Chlorox® bleach solution and the degradation products were examined by LC-MS. The seasoned developer solutions were prepared in the lab after development of imaged commercially available, negative-working printing plate precursors containing IR dye 66e with Kodak 1080 Developer under conditions that account for real-life situation at the end of the processor cycle when the seasoned developer solution is being changed. The following calculation of the coating concentration in the seasoned developer solution at the end of the processing cycle takes into account that a Mercury 1035 processor will have a cycle of 3150 m^2 plates/9 gal (34 liters) of developer solution that is the tank capacity. […]
To account for the lower limit, solution C was prepared by dissolving 1.1 m^2 of printing plate coating in 100 ml of developer solution. […] The precipitate (2) and the supernatant liquid (2) were analyzed by LC-MS for the IR dye 66e using the equipment and method described above in Comparative Example 3.
Precipitate (2) was extracted in acetonitrile:isopropanol at 2.5 mg/ml. […] This reference solution (standard) was analyzed to determine the sensitivity of the instrument. […]

[4] = Treatment of IR dye 66e in methanol with Chlorox bleach solution (qualitative, titration, LC-MS); format: physicochemical
[5] = Attempt to precipitate the anionic chromophore of IR Dye I as insoluble salts; format: physicochemical; settings: IR Dye I 0.3% in methanol; 3% solution of compound in water
[6] = Attempt to precipitate the cationic chromophore of IR dye 66e as insoluble salts with organic acids; format: physicochemical; settings: IR dye 66e 0.3% in methanol; aqueous organic acid at 3% concentration
[7] = 0.3% IR dye 66e in methanol, 23° C.
[8] = after titration with diluted bleach

Compound: N.N.O=S(=O)(O)OOS(=O)(=O)O [Ammonium persulfate]
- Change Noticed [1, 7]: Dye bleached pink
- toxicity to aquatic life (aquatic life): toxic to aquatic life

Compound: O=[N+]([O-])[O-].O=[N+]([O-])[O-].O=[N+]([O-])[O-].O=[N+]([O-])[O-].O=[N+]([O-])[O-].O=[N+]([O-])[O-].[Ce+4].[NH4+].[NH4+] [Ceric ammonium nitrate]
- Change Noticed [1]: Dye bleached pink

Compound: O=C([O-])c1ccccc1.[Cu+] [Cu(I) benzoate]
- Change Noticed [1]: Dye bleached pink

Compound: [Cl][Fe]([Cl])[Cl] [Ferric chloride]
- Change Noticed [1, 7]: Black
- toxicity to aquatic life (aquatic life): toxic to aquatic life

Compound: [Cl][Fe][Cl] [Ferrous chloride]
- Change Noticed [1, 7]: Black
- toxicity to aquatic life (aquatic life): toxic to aquatic life

- Change Noticed ([1]; 0.3% IR dye 66e in methanol, NaOH, room temperature): Pink precipitate
- Change Noticed ([1]; 0.3% IR dye 66e in methanol, Sulfuric acid, 1%, 23° C.): Black
- Change Noticed ([1]; 0.3% IR dye 66e in methanol, Sulfuric acid, 1%, Heat): Dye bleached pink
Compound: OO [Hydrogen peroxide]
- carcinogenic and mutagenic potential for humans (humans): potential carcinogenic and mutagenic for humans

Compound: CC(=O)OCCN1/C(=C/C=C2\CCC(/C=C/C3=[N+](CCOC(C)=O)c4ccc5cc(S(=O)(=O)O)ccc5c4C3(C)C)=C2N(c2ccccc2)c2ccccc2)C(C)(C)c2c1ccc1cc(S(=O)(=O)[O-])ccc21 [IR Dye I]
- residual dye in extract of sediment (3) or supernatant liquid (3) by FTIR [2]: No residual IR Dye I was found

Compound: CN1/C(=C/C=C2\CCCC(/C=C/C3=[N+](C)c4ccccc4C3(C)C)=C2Sc2ccccc2)C(C)(C)c2ccccc21 [IR dye 66e]
- residual dye in supernatant liquid (2) by LC-MS [3]: No trace of IR dye 66e was found
- change of dye solution on bleach treatment ([4]; 0.3% in methanol, liberal amount of Chlorox bleach solution (3.6% sodium hypochlorite), room temperature, shaking): color change from green to light yellow and a yellow precipitate was formed
- change of dye solution, incomplete degradation ([4]; 20 ml solution B titrated with 4.8 ml of 5% bleach (insufficient hypochlorite)): became reddish-brown
- residual dye in filtrate (1) by LC-MS [4, 8]: did not contain IR dye 66e
- residual dye in precipitate (1) by LC-MS [4, 8]: gave a signal for the IR dye 66e
- original dye co-precipitated with its degradation products ([4]; estimated, precipitate (1)): about 1%
- undiluted Chlorox bleach solution needed to bleach 1 mg of dye ([4]; titration, per 1 mg dye, magnetic stirrer): 0.007463 mL
- Chlorox bleach solution needed for degradation of 1 g of dye ([4]; titration, per 1 g dye): 7.46 mL

Compound: O=C1CCC(=O)N1Br [N-Bromo-succinimide]
- Change Noticed [1]: Dye bleached pink

Compound: O=S([O-])[O-].[Na+].[Na+] [Na sulfite]
- Change Noticed [1]: Some bleaching,

Compound: [O-][Cl+3]([O-])([O-])O [Perchloric acid]
- Change Noticed [1]: Dye bleached pink

Compound: O=S(=O)([O-])OOS(=O)(=O)[O-].[K+].[K+] [Potassium persulfate]
- Change Noticed [1]: Brown

Compound: O=S([O-])O.[Na+] [Sodium hydrogen sulfite]
- Change Noticed [1]: No reaction

- Change Noticed ([1]; 0.3% IR dye 66e in methanol, Heat): No reaction
Compound: O=S([O-])S(=O)(=O)[O-].[Na+].[Na+] [Sodium metabisulfite]

Compound: CCCCCCCCCCCCCCCCCC[N+](C)(C)Cc1ccccc1.[Cl-] [benzyl stearyl dimethyl ammonium chloride]
- precipitation of IR Dye I [5]: None of these compounds precipitated IR Dye I

Compound: C[N+](C)(C)Cc1ccccc1.[Cl-] [benzyl trimethyl ammonium chloride]
- precipitation of IR Dye I [5]: None of these compounds precipitated IR Dye I

Compound: naphthalene sulfonic acid
- precipitation of IR dye 66e [6]: None of these organic acids were useful to precipitate the IR dye 66e
